Patent publication US20040127518A1, “Modulation of anxiety through blockade of anandamide hydrolysis” (priority 2002, published 2004)

Assays:
rat cortical neurons = assay: Transport, accumulation and release of non-metabolized [3H]anandamide in cortical neurons; format: cell-based
[1] = Isolation-induced ultrasonic vocalization emission in rat pups; format: in vivo; conditions: 5 mg kg-1
brain FAAH activity = biological target: T1, brain FAAH activity (Rattus norvegicus, UniProt P97612); assay: Brain FAAH activity after systemic (i.p.) administration; format: in vivo; conditions: ip, six experiments, read-out: half-maximal inhibition of brain FAAH activity (ID50)
T1 construct: from tissue; host or cells: rat brain (membrane fraction of homogenate; Wistar rats)
T1 sequence (P97612 1-579): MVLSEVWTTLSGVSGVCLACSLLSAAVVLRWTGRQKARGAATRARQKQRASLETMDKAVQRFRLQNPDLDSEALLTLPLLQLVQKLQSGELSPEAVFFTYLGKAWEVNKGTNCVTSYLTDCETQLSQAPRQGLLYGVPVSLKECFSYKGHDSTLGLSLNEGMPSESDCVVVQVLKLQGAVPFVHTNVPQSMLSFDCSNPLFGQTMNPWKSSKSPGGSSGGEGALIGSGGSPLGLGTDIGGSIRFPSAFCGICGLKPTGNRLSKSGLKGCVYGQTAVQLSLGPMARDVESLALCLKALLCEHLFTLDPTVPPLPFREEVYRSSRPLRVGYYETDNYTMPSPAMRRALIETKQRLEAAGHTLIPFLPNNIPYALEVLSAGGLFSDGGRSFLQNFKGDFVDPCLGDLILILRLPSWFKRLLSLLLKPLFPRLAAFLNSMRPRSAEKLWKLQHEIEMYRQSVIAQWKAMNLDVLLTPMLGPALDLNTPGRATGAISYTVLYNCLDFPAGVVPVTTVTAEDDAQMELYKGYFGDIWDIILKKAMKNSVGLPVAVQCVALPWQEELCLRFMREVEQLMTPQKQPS

Mouse hot-plate test = format: in vivo; conditions: dose not stated, data not shown
Description: We dissolved FAAH inhibitors in polyethyleneglycol/water (1/1) and rimonabant in saline. Formalin and hot-plate assays were carried out in the mouse, as described (Beltramo, M. et al., FEBS Lett., 403, 263-267 (1997)).
The compounds exerted, however, moderate antinociceptive effects in two models of acute pain.

[2] = biological target: horse plasma butyryl cholinesterase (Equus caballus, UniProt P81908); assay: Cholinesterase assay with commercial kit, purified enzyme
Sequence of horse plasma butyryl cholinesterase (P81908 whole entry): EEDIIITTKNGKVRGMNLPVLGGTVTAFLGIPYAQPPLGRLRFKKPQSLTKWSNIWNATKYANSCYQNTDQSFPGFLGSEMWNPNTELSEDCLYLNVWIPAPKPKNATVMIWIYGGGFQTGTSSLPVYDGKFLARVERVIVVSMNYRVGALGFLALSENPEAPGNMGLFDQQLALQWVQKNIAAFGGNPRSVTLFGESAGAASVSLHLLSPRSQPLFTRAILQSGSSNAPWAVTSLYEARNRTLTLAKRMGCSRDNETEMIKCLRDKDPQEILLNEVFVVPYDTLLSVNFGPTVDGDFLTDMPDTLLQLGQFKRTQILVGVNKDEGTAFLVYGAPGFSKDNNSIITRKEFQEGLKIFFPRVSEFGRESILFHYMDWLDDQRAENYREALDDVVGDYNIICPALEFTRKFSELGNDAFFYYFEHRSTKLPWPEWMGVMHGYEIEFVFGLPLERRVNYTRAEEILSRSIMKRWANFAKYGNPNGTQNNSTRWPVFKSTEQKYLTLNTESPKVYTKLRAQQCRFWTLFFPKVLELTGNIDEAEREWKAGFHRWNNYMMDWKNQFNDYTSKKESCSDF
Description: We prepared cell fractions from rat brain homogenates, and assayed membrane FAAH activity and cytosol MGL activity using anandamide [ethanolamine-3H] (American Radiolabeled Chemicals, ARC (St. Louis Mo.), 60 Ci/mmol) and 2-mono-oleoyl-glycerol-[glycerol-1,2,3^−3H] (ARC, St. Louis Mo., 20 Ci/mmol), respectively, as substrates (Dinh, T. Proc. Natl. Acad. Sci. U.S.A. (2002)). We conducted [^3H]anandamide transport assays in human astrocytoma cells (Piomelli, D. et al., Proc. Natl. Acad. Sci. U.S.A., 96, 5802-5807 (1999)); CB1 and CB2 binding assays in rat cerebellar membranes and CB2-overexpressing Chinese hamster ovary cells (Receptor Biology-Perkin Elmer, Wellesley, Mass.), respectively, using [^3H]WIN-55212-2 (NEN-Dupont, Boston, Mass., 40-60 Ci/mmol) as a ligand (Devane, W. A. et al. Science, 258, 1946-1949 (1992)); cholinesterase assays with a commercial kit (Sigma, St. Louis, Mo.), using purified enzymes (electric eel acetylcholinesterase type V-S and horse serum cholinesterase; both from Sigma, St. Louis, Mo.) and following manufacturer's instructions.

SMILES: CCCCNC(=O)Oc1ccc(OCc2ccccc2)cc1 [UCM532, n-Butylcarbamic acid 4-benzyloxyphenyl ester]
- accumulation of non-metabolized [3H]anandamide in neurons (rat cortical neurons; 4-min incubation, UCM532 3 μM, UCM597 10 nM, AM404 10 μM): promote accumulation
- carrier-mediated uptake of [3H]anandamide (rat cortical neurons; rat cortical neurons): without reducing
- isolation-induced ultrasonic calls [1]: strongly reduced
- ED50 (brain FAAH activity): 0.6 ± 0.09 mg/kg
- antinociceptive effect, hot-plate test, compared with UCM597 (Mouse hot-plate test): mimicked, albeit less effectively
- effect on butyryl cholinesterase activity (in words) [2]: did not affect
- BCh SI (maximal concentration tested/IC50 for FAAH) ([2]; Table 2): ≧333
- BCh: maximal concentration of FAAH inhibitor tested ([2]; Table 2): >100 µM
